In one assay the target is T1, Adrenergic β2 (Homo sapiens, UniProt P07550).
T1 construct: Adherent H292 cells were removed from tissue culture flasks; endogenous in cells; host or cells: H292 cells
Nature of the assay: Adrenergic β2 mediated cAMP production in H292 cells. Particulars: for EC50: read-out: β2 pEC50 (converted); for β2 Int Act: Intrinsic Activity as a fraction relative to the maximum activity determined for formoterol. Type of assay: cell-based. As for the experimental part:
Adrenergic β2 mediated cAMP production
H292 cells were grown in 225 cm2 flasks incubator at 37° C., 5% CO2 in RPMI medium containing, 10% (v/v) FBS (foetal bovine serum) and 2 mM L-glutamine.
Adherent H292 cells were removed from tissue culture flasks by treatment with Accutase™ cell detachment solution for 15 minutes. Flasks were incubated for 15 minutes in a humidified incubator at 37° C., 5% CO2. Detached cells were re-suspended in RPMI media (containing 10% (v/v) FBS and 2 mM L-glutamine) at 0.05×10^6 cells per mL. 5000 cells in 100 μL were added to each well of a tissue-culture-treated 96-well plate and the cells incubated overnight in a humidified incubator at 37° C., 5% CO2. The culture media was removed and cells were washed twice with 100 μL assay buffer and replaced with 50 μL assay buffer (HBSS solution containing 10 mM HEPES pH7.4 and 5 mM glucose). Cells were rested at room temperature for 20 minutes after which time 25 μL of rolipram (1.2 mM made up in assay buffer containing 2.4% (v/v) dimethylsulphoxide) was added. Cells were incubated with rolipram for 10 minutes after which time test compounds were added and the cells were incubated for 60 minutes at room temperature. The final rolipram concentration in the assay was 300 μM and final vehicle concentration was 1.6% (v/v) dimethylsulphoxide. The reaction was stopped by removing supernatants, washing once with 100 μL assay buffer and replacing with 50 μL lysis buffer. The cell monolayer was frozen at −80° C. for 30 minutes (or overnight).
The concentration of cAMP (cyclic adenosine monophosphate) in the cell lysate was determined using AlphaScreen™ methodology. The frozen cell plate was thawed for 20 minutes on a plate shaker then 10 μL of the cell lysate was transferred to a 96-well white plate. 40 μL of mixed AlphaScreen™ detection beads pre-incubated with biotinylated cAMP, was added to each well and the plate incubated at room temperature for 10 hours in the dark. The AlphaScreen™ signal was measured using an EnVision spectrophotometer (Perkin-Elmer Inc.) with the recommended manufacturer's settings. cAMP concentrations were determined by reference to a calibration curve determined in the same experiment using standard cAMP concentrations. Concentration response curves for agonists were constructed and data was fitted to a four parameter logistic equation to determine both the pEC50 and Intrinsic Activity. Intrinsic Activity was expressed as a fraction relative to the maximum activity determined for formoterol in each experiment.

Assay [1] concerns the target T2, recombinant human Dopamine Subtype D2s receptors (Homo sapiens, UniProt P14416).
T2 construct: purchased Perkin Elmer
Put plainly: Dopamine D2 selectivity binding assay ([3H]-spiperone). Particulars: inhibition of [3H]-spiperone (0.16 nM) binding; for IC50: read-out: D2 bind pIC50 (converted). As for the experimental part:
Membranes containing recombinant human Dopamine Subtype D2s receptors were obtained from Perkin Elmer. These were diluted in Assay Buffer (50 mM HEPES, 1 mM EDTA, 120 mM NaCl, 0.1% gelatin, pH 7.4) to provide a final concentration of membranes that gave a clear window between maximum and minimum specific binding.
(§1) Assays were performed in U-bottomed 96-well polypropylene plates. 30 μL [^3H]-spiperone (0.16 nM final concentration) and 30 μL of test compound (10× final concentration) were added to each test well. For each assay plate 8 replicates were obtained for [^3H]-spiperone binding in the presence of 30 μL vehicle (10% (v/v) DMSO in Assay Buffer; defining maximum binding) or 30 μL Haloperidol (10 μM final concentration; defining non-specific binding (NSB)). Membranes were then added to achieve a final volume of 300 μL. The plates were incubated for 2 hours at room temperature and then filtered onto PEI coated GF/B filter plates, pre-soaked for 1 hour in Assay Buffer, using a 96-well plate Tomtec cell harvester. Five washes with 250 μL wash buffer (50 mM HEPES, 1 mM EDTA, 120 mM NaCl, pH 7.4) were performed at 4° C. to remove unbound radioactivity. The plates were dried then sealed from underneath using Packard plate sealers and MicroScint-O (50 μL) was added to each well. The plates were sealed (TopSeal A) and filter-bound radioactivity was measured with a scintillation counter (TopCount, Packard BioScience) using a 3-minute counting protocol.
Total specific binding (B0) was determined by subtracting the mean NSB from the mean maximum binding. NSB values were also subtracted from values from all other wells. […] Data was fitted to a four parameter logistic equation to determine the compound potency, which was expressed as pIC50 (negative log molar concentration inducing 50% inhibition of [^3H]-spiperone binding).

The target of assay [2] is T3, recombinant human adrenergic beta 1 receptors (Homo sapiens, UniProt P08588).
T3 construct: purchased Euroscreen
Put plainly: Adrenergic β1 selectivity binding assay ([125I]-Iodocyanopindolol). Particulars: inhibition of [125I]-Iodocyanopindolol (0.036 nM) binding; for IC50: read-out: β1 bind p IC50 (converted). How it is done: Membranes containing recombinant human adrenergic beta 1 receptors were obtained from Euroscreen. These were diluted in Assay Buffer (50 mM HEPES, 1 mM EDTA, 120 mM NaCl, 0.1% gelatin, pH 7.4) to provide a final concentration of membranes that gave a clear window between maximum and minimum specific binding.
as §1, with “10” for “30”, “[^125I]-Iodocyanopindolol (0.036” for “[^3H]-spiperone (0.16”, “[^125I]-Iodocyanopindolol” for “[^3H]-spiperone”, “Propranolol” for “Haloperidol”, “100” for “300”
Total specific binding (B0) was determined by subtracting the mean NSB from the mean maximum binding. NSB values were also subtracted from values from all other wells. […] Data was fitted to a four parameter logistic equation to determine the compound potency, which was expressed as pIC50 (negative log molar concentration inducing 50% inhibition of [^125I]-Iodocyanopindolol binding).

Setting [3] is: H292 cells, cAMP by AlphaScreen, 60 minutes at room temperature, rolipram 300 μM.

Structures can show the parent of a compound that is named as a salt.

The record followed here is patent publication US20100022491A1, “4-HYDROXY-2-OXO-2,3-DIHYDRO-1,3-BENZOTHIAZOL-7YL COMPOUNDS FOR MODULATION OF B2-ADRENORECEPTOR ACTIVITY” (ASTRAZENECA AB, priority 2006, published 2010).

T1 sequence (P07550 whole entry): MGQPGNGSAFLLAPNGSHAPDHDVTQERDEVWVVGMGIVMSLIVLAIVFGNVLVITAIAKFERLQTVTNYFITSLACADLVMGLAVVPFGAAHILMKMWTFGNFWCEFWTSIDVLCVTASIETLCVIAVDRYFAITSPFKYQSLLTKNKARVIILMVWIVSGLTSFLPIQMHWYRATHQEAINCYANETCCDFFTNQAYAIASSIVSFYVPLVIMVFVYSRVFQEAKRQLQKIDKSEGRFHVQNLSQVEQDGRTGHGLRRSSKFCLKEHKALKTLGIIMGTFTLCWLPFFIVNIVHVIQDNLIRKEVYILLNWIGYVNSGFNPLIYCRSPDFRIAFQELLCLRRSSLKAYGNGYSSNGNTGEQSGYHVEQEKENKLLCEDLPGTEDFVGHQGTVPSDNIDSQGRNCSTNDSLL
T3 sequence (P08588 whole entry): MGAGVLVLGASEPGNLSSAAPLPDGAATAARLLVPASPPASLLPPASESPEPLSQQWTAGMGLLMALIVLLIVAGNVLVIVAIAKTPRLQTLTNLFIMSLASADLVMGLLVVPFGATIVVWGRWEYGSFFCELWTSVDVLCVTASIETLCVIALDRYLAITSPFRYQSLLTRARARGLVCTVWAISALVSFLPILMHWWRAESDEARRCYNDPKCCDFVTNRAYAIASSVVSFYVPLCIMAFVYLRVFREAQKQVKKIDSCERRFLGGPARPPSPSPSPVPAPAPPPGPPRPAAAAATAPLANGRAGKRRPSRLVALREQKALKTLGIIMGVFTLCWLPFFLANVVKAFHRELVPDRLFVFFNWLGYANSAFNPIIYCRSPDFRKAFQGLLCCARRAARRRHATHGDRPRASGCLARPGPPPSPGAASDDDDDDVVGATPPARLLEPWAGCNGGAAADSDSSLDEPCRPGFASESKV
T2 sequence (P14416 1-414 isoform P14416-2): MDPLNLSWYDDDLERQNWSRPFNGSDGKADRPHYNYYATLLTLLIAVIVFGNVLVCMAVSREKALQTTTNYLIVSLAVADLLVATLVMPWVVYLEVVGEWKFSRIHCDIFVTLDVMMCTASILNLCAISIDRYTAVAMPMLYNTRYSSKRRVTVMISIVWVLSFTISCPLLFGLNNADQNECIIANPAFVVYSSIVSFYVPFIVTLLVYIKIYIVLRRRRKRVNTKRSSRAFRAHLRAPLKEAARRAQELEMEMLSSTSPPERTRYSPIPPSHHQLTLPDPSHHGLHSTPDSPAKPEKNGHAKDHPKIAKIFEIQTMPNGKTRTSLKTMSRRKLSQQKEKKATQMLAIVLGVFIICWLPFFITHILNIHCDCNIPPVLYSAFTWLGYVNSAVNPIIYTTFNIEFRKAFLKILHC

For the molecule `O=C(CCNCCc1ccccc1)N(CCNCCc1ccc(O)c2[nH]c(=O)sc12)C1CCCC1` [Example 2, N-Cyclopentyl-N-(2-{[2-(4-hydroxy-2-oxo-2,3-dihydro-1,3-benzothiazol-7-yl)ethyl]amino}ethyl)-N^3-(2-phenylethyl)-β-alaninamide bis-trifluoroacetic acid salt], on Adrenergic β2 (setting [3]), the EC50 is 3.16 nM. Further, the “β2 Int Act” value at Adrenergic β2 was determined as 1.04. Moreover, the IC50 in assay [1] was 251 nM; in assay [2], 5010 nM.
Regarding `CC(C)(C)CN(CCNCCc1ccc(O)c2[nH]c(=O)sc12)C(=O)CCNCCc1ccccc1` [Example 6, N-(2,2-Dimethylpropyl)-N-(2-{[2-(4-hydroxy-2-oxo-2,3-dihydro-1,3-benzothiazol-7-yl)ethyl]amino}ethyl)-N^3-(2-phenylethyl)-β-alaninamide bis-trifluoroacetic acid salt], the EC50 on Adrenergic β2 (setting [3]) is 2 nM. Moreover, the “β2 Int Act” value at Adrenergic β2 was determined as 0.89. Moreover, the IC50 in assay [1] was 200 nM; in assay [2] it was 794 nM.
Regarding `CC(C)(C)CN(CCNCCc1ccc(O)c2[nH]c(=O)sc12)C(=O)CCNCCc1cccc(Cl)c1` [Example 7, N^3-[2-(3-Chlorophenyl)ethyl]-N-(2,2-dimethylpropyl)-N-(2-{[2-(4-hydroxy-2-oxo-2,3-dihydro-1,3-benzothiazol-7-yl)ethyl]amino}ethyl)-β-alaninamide bis-trifluoroacetic acid salt], the EC50 at Adrenergic β2 (setting [3]) was 3.98 nM. Further, the “β2 Int Act” value on Adrenergic β2 is 0.68. Besides, the IC50 in assay [1] is 316 nM; in assay [2] it was 3160 nM.
Regarding `CC(C)(C)CN(CCNCCc1ccc(O)c2[nH]c(=O)sc12)C(=O)CCNCCc1ccc(Cl)cc1` [Example 8, N^3-[2-(4-Chlorophenyl)ethyl]-N-(2,2-dimethylpropyl)-N-(2-{[2-(4-hydroxy-2-oxo-2,3-dihydro-1,3-benzothiazol-7-yl)ethyl]amino}ethyl)-β-alaninamide bis-trifluoroacetic acid salt], the EC50 on Adrenergic β2 (setting [3]) was 10 nM. For the same molecule, at Adrenergic β2, the “β2 Int Act” value stood at 0.73. For the same molecule, the results for the IC50 in assay [1] and in assay [2] were 398 nM and 5010 nM, respectively.
Consider `CC(C)(C)CN(CCNCCc1ccc(O)c2[nH]c(=O)sc12)C(=O)CCNCCc1ccc(Cl)c(Cl)c1` [Example 9, N^3-[2-(3,4-Dichlorophenyl)ethyl]-N-(2,2-dimethylpropyl)-N-(2-{[2-(4-hydroxy-2-oxo-2,3-dihydro-1,3-benzothiazol-7-yl)ethyl]amino}ethyl)-β-alaninamide bis-trifluoroacetic acid salt], for which the EC50 on Adrenergic β2 (setting [3]) is 7.94 nM. Also, the “β2 Int Act” value at Adrenergic β2 came to 0.65. In addition, the figures for the IC50 in assay [1] and in assay [2] were 251 nM and 5010 nM, respectively.
The matching figures for `C[C@H](CNCCC(=O)N(CCNCCc1ccc(O)c2[nH]c(=O)sc12)CC(C)(C)C)c1ccccc1` [Example 11, N-(2,2-Dimethylpropyl)-N-(2-{[2-(4-hydroxy-2-oxo-2,3-dihydro-1,3-benzothiazol-7-yl)ethyl]amino}ethyl)-N^3-[(2S)-2-phenylpropyl]-β-alaninamide bis-trifluoroacetic acid salt]: 15.8 nM, 0.84, 501 nM and 7940 nM.
In the same order, the values of `O=C(CCNCCc1cccc(Cl)c1)N(CCNCCc1ccc(O)c2[nH]c(=O)sc12)C1CCCCC1` [Example 12, N^3-[2-(3-Chlorophenyl)ethyl]-N-cyclohexyl-N-(2-{[2-(4-hydroxy-2-oxo-2,3-dihydro-1,3-benzothiazol-7-yl)ethyl]amino}ethyl)-β-alaninamide bis-trifluoroacetic acid salt] are 2.51 nM, 0.87, 50.1 nM and 3160 nM.
In the same order, the values of `O=C(CCNCCc1ccc(Cl)cc1)N(CCNCCc1ccc(O)c2[nH]c(=O)sc12)C1CCCCC1` [Example 13, N^3-[2-(4-Chlorophenyl)ethyl]-N-cyclohexyl-N-(2-{[2-(4-hydroxy-2-oxo-2,3-dihydro-1,3-benzothiazol-7-yl)ethyl]amino}ethyl)-β-alaninamide bis-trifluoroacetic acid salt] are 5.01 nM, 0.71, 126 nM and 3160 nM.
In the case of `Cc1cccc(CCNCCC(=O)N(CCNCCc2ccc(O)c3[nH]c(=O)sc23)C2CCCCC2)c1` [Example 14, N-Cyclohexyl-N-(2-{[2-(4-hydroxy-2-oxo-2,3-dihydro-1,3-benzothiazol-7-yl)ethyl]amino}ethyl)-N^3-[2-(3-methylphenyl)ethyl]-β-alaninamide bis-trifluoroacetic acid salt], the EC50 at Adrenergic β2 (setting [3]) was 3.98 nM. Further, on Adrenergic β2, the “β2 Int Act” value stood at 0.84. For the same molecule, the IC50 in assay [1] was 501 nM; in assay [2], 7940 nM.
As to `O=C(CCNCCc1cccc(F)c1)N(CCNCCc1ccc(O)c2[nH]c(=O)sc12)C1CCCCC1` [Example 15, N-Cyclohexyl-N^3-[2-(3-fluorophenyl)ethyl]-N-(2-{[2-(4-hydroxy-2-oxo-2,3-dihydro-1,3-benzothiazol-7-yl)ethyl]amino}ethyl)-β-alaninamide bis-trifluoroacetic acid salt], the “β2 pEC50” value on Adrenergic β2 (setting [3]) is on record as 8.6. Also, the “D2 bind pIC50” value in assay [1] was 6.4. The “β1 bind p IC50” value in assay [2] came to 5.2.
